Reference: patent US20220152082A1, “Methods for Cancer Diagnosis, Prognosis or Treatment” (AnPac Bio-Medical Science Co., Ltd., priority 2019, published 2022)

Tests used:
NF-κB = experiment: Western blot of p65 and IκBα phosphorylation, T47D; assay type: cell-based, human; conditions: 10 μM, 8 days
LINC00472 [1] = experiment: qRT-PCR of LINC00472 expression, T47D; assay type: cell-based, human; conditions: 10 μM, 8 days
Description: Total RNA was extracted from fresh-frozen tumor samples and cultured tumor cells using the […] kit (Qiagen). RNA samples were reverse-transcribed (RT) to cDNA using the cDNA Reverse Transcription kit (LifeTech), and analyzed for LINC00472 expression with real-time PCR (qPCR). Breast cancer cells were transfected with Lincode Human LINC00472 (79940) siRNA-SMART pool (D-001320-10-05) or Lincode Non-targeting Pool (D-001320-10-05), negative control from Dharmacon, following the manufacturer's protocol for Lipofectamine RNAiMAX (Thermo Fisher Scientific). The method of transfection was known in the art. Cell lysates were prepared for analysis after 36 hours of incubation of the transfected cells. […] After eight days of culture, cells were collected, and total RNA and proteins were extracted for qRT-PCR analysis of LINC00472 and western blot of ERα and NF-κB, respectively.

LINC00472 [2] = experiment: TNF-α treatment, LINC00472 expression; assay type: cell-based; conditions: breast cancer cells, TNF-α 10 ng/ml, 24 hours
Protocol: Total RNA was extracted from fresh-frozen tumor samples and cultured tumor cells using the Allprep DNA/RNA kit (Qiagen). RNA samples were reverse-transcribed (RT) to cDNA using the cDNA Reverse Transcription kit (LifeTech), and analyzed for LINC00472 expression with real-time PCR (qPCR).
TNF-α (Sigma-Aldrich), diluted in the culture medium immediately before experiment, was added to cultured cells with a final concentration of 10 ng/ml. The cells were incubated for 24 hours before analysis. DMSO (Sigma-Aldrich) treated cells were used as control. Total RNA and proteins were extracted for analysis of LINC00472 expression and NF-κB activation.

Molecule	phosphorylation of p65 and IκBα (NF-κB)	expression of LINC00472 (LINC00472 [1])	expression of LINC00472 (LINC00472 [1]; listed as tamoxifen)	LINC00472 expression (LINC00472 [2])
CC/C(=C(\c1ccc(O)cc1)c1ccc(OCCN(C)C)cc1)c1ccccc1 [4-hydroxytamoxifen, 4-Hydroxytamoxifen]	increased	decreased	lowered	
TNF-α				no effect
